Reference: PMC5597475 (Molecular imaging and biology : MIB : the official …, 2017)

What was measured:
LRRK2 [1] = molecular target: LRRK2 (Mus musculus, UniProt Q5S006); experiment: In vivo blocking study: [^3H]LRRK2-IN-1 co-administered with Pf-06447475 in mice; details: for % blocking (max.) of [^3H]LRRK2-IN-1 uptake: 10 mg/kg Pf-06447475, 10 mg/kg
LRRK2 kinase = LRRK2 kinase inhibitor; cited from earlier work
LRRK2 [2] = molecular target: LRRK2 (Rattus norvegicus, UniProt F1LNJ1); details: IC50 for displacement of [^3H]LRRK2-IN-1 binding, rat kidney; 10 nM radioligand
LRRK2 [3] = molecular target: LRRK2 (Homo sapiens, UniProt Q5S007); format: binding
WT (wild-type) LRRK2 = details: cited from earlier work
mutant G2019S type LRRK2 = details: cited from earlier work

Chain of LRRK2 (Mus musculus, UniProt Q5S006) (Q5S006 whole entry): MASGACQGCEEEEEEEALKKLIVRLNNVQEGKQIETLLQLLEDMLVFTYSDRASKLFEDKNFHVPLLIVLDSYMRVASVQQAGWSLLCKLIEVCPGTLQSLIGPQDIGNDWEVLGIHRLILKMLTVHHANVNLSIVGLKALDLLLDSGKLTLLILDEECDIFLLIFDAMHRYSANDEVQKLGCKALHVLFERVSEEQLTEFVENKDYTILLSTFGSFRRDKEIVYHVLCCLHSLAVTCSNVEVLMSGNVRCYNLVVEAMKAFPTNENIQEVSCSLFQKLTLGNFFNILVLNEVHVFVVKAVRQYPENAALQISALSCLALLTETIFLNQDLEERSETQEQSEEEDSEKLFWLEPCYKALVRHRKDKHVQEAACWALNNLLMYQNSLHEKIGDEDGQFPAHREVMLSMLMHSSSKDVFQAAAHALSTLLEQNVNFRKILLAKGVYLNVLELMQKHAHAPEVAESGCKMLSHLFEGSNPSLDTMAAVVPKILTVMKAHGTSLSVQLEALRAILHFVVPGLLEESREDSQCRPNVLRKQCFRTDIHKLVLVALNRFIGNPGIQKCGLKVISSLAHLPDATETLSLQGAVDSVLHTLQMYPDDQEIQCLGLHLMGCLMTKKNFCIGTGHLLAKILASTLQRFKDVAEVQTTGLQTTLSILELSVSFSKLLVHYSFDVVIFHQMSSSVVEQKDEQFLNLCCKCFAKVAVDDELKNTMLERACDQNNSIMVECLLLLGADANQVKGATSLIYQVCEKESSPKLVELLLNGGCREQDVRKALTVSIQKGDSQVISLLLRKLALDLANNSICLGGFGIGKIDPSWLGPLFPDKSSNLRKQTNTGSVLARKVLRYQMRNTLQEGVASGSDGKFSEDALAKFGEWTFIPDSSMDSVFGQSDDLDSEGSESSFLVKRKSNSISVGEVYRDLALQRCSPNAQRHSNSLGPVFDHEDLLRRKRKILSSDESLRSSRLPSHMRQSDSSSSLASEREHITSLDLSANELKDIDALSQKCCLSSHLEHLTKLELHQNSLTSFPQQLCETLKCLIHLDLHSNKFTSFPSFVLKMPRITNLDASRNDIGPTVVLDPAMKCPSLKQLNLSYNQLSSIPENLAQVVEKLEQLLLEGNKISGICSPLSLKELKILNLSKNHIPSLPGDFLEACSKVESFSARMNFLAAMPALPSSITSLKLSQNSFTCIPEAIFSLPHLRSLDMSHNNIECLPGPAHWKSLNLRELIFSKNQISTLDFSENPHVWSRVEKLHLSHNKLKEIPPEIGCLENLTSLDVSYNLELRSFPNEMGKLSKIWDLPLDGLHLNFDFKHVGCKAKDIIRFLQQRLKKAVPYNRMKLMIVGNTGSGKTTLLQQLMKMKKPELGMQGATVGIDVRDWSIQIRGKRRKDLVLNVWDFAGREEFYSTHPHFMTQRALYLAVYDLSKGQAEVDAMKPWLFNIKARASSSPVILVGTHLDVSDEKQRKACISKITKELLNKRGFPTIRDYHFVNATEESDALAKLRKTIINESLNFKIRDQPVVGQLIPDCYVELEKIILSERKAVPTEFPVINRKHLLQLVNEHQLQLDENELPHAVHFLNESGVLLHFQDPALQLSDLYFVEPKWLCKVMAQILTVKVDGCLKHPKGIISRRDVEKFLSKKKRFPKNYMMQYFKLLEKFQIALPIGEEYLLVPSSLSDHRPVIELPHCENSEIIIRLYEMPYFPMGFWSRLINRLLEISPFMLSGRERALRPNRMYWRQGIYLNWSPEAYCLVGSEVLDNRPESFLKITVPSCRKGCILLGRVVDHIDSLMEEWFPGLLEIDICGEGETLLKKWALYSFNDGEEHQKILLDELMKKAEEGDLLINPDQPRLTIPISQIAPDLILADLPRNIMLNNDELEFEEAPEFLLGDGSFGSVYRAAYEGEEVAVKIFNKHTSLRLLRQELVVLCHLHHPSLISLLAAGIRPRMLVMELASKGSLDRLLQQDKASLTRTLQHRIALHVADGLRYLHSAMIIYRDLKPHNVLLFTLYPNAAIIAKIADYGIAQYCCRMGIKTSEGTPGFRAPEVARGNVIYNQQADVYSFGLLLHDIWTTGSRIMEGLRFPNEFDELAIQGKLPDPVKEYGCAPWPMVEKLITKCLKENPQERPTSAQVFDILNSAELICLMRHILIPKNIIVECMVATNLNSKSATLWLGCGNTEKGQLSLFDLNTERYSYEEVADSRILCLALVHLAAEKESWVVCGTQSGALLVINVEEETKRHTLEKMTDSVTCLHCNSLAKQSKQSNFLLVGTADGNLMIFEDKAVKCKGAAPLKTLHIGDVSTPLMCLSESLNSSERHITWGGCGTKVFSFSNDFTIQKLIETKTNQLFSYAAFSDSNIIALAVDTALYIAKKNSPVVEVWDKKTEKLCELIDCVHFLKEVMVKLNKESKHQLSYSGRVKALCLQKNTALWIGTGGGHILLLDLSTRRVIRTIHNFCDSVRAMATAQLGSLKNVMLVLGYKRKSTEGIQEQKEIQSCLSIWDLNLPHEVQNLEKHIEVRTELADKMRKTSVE
Chain of LRRK2 (Homo sapiens, UniProt Q5S007) (Q5S007 whole entry): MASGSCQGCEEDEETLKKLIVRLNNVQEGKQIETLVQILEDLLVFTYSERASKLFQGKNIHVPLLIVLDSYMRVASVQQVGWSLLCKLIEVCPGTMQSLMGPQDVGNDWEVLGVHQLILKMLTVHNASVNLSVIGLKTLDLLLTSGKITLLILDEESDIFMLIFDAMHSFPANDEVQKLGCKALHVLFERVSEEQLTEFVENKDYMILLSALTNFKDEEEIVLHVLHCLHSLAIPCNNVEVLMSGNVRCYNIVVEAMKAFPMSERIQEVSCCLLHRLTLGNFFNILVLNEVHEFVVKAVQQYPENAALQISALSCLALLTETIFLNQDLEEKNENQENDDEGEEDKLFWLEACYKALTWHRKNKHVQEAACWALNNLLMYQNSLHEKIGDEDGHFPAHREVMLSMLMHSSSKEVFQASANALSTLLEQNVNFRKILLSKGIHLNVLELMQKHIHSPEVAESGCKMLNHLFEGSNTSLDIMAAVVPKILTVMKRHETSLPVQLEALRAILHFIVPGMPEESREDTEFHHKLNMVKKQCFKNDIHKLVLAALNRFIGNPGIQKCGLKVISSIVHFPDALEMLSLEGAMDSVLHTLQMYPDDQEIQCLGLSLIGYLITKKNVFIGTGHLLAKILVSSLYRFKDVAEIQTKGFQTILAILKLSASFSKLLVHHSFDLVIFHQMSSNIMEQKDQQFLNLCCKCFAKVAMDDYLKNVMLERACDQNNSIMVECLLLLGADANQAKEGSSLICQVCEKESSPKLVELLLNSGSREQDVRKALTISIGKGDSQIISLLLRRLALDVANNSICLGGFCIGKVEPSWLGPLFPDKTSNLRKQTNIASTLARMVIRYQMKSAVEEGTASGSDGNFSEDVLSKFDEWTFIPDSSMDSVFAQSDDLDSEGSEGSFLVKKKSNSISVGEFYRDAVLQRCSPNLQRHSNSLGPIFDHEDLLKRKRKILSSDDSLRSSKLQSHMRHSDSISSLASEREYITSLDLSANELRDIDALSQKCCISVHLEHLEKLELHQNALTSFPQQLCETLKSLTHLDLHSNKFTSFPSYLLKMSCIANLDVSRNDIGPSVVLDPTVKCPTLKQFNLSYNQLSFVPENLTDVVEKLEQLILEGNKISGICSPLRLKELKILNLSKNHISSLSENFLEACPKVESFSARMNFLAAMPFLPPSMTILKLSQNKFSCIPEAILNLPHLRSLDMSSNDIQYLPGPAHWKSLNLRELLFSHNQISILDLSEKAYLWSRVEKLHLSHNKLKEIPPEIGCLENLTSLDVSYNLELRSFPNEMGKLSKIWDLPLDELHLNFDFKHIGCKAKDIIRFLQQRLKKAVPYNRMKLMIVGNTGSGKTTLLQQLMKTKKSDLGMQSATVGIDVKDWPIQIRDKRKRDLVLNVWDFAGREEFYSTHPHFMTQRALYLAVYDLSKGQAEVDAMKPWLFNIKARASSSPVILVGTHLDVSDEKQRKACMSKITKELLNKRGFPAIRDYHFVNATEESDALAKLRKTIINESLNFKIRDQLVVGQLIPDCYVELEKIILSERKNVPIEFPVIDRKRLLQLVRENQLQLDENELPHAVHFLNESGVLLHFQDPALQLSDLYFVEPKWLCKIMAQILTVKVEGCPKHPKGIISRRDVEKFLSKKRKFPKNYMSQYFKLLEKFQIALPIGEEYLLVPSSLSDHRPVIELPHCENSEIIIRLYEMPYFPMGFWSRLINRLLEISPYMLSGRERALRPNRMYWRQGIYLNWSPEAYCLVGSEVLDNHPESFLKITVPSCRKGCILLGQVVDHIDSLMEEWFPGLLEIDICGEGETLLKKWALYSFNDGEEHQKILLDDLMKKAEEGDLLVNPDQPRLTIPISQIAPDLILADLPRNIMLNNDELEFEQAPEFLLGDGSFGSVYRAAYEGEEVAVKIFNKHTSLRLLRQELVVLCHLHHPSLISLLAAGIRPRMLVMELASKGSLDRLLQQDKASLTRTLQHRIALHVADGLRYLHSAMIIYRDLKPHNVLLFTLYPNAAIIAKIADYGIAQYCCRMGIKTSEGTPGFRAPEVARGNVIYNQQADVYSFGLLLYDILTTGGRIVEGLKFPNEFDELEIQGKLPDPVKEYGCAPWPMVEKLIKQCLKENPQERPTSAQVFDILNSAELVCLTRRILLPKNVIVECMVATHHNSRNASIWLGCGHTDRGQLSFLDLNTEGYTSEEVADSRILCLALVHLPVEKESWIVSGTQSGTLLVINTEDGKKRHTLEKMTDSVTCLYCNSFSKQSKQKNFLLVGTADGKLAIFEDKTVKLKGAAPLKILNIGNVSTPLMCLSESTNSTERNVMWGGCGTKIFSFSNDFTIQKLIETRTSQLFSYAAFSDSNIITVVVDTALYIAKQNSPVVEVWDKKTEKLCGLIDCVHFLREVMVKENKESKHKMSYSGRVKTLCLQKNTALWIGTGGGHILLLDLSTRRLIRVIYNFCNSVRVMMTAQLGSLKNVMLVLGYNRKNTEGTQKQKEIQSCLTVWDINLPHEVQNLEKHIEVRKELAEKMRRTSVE

N#Cc1cccc(-c2c[nH]c3ncnc(N4CCOCC4)c23)c1 [Pf-06447475, 3-[4-(morpholin-4-yl)-7H-pyrrolo[2,3-d]pyrimidin-5-yl] benzonitrile]
% blocking (max.) of [^3H]LRRK2-IN-1 uptake (LRRK2 [1]; brain): 62% | Reduction of [^3H]LRRK2-IN-1 uptake (LRRK2 [1]; heart, 10 mg/kg Pf-06447475): 72% | Reduction of [^3H]LRRK2-IN-1 uptake (%ID/g) (LRRK2 [1]; in the kidney or brain, 10 mg/kg Pf-06447475): 50–60% | % blocking (max.) of [^3H]LRRK2-IN-1 uptake (LRRK2 [1]; kidney): 54% | Reduction of [^3H]LRRK2-IN-1 uptake (LRRK2 [1]; liver, 10 mg/kg Pf-06447475): 34% | Reduction of [^3H]LRRK2-IN-1 uptake (LRRK2 [1]; lung, 10 mg/kg Pf-06447475): 78% | Reduction of [^3H]LRRK2-IN-1 uptake (LRRK2 [1]; muscle, 10 mg/kg Pf-06447475): 62% | Reduction of [^3H]LRRK2-IN-1 uptake (LRRK2 [1]; spleen, 10 mg/kg Pf-06447475): 40% | IC50 (LRRK2 kinase): 3 nM

COc1cc(C(=O)N2CCC(N3CCN(C)CC3)CC2)ccc1Nc1ncc2c(n1)N(C)c1ccccc1C(=O)N2C [LRRK2-IN-1]
IC50 (LRRK2 [2]): 40 ± 4 nM | IC50 (LRRK2 [3]): 73 ± 6 nM | IC50 (WT (wild-type) LRRK2): 13 nM | IC50 (mutant G2019S type LRRK2): 6 nM
